Series [1] deals with HNDFs. Briefly: Flow cytometric detection of intracellular ROS (DCFH2-DA) in HNDFs. In kind it is cell-based, human. The method, then:
Intracellular ROS accumulation was determined using the dye DCFH2-DA following a procedure described earlier. Briefly, HNDFs (1 × 10^5 cells/well) were seeded in 6-well plates and incubated with HG in the presence or absence of test samples for 24 h. At the end of the incubation, the culture supernatant was removed and cells were washed twice with PBS. DCFH2-DA (10 μM) was mixed with 500 μL MEM and added to the culture plate. After incubation for 30 minutes, cells were collected by trypsin and the fluorescence shift was quantified using a flow cytometer (Beckman Coulter). Data were acquired and analyzed using CXP software (Beckman Coulter).

Series [2] is described as follows: Cell-free DPPH free-radical scavenging assay. Background: DPPH is a stable violet radical that fades when it is reduced.
Method: Therefore, next to determine whether ANM acts directly as a free-radical scavenger, we performed a cell-free DPPH free-radical scavenging assay.
Figure 5 Antcin M activates Nrf2-dependent anti-oxidant defense in HNDFs A. To determine the free-radical scavenging effect of ANM, cell-free DPPH assay was performed. […] Results expressed as mean ± S.E.M of three indipendent expriments.
Series [3] deals with p16INK4A, p21CIP1 and SMP30. Briefly: Western blot of senescence-associated marker proteins in HG-induced HNDFs. In kind it is cell-based, human. Conditions: 10 μM with HG (30 mM) for 72 h, immunoblotting. The method, then: Cells were lysed by either RIPA lysis buffer or nuclear and cytoplasmic extraction reagents (Thermo Fisher Scientific). Protein concentrations were determined by Bio-Rad protein assay reagent (Bio-Rad Laboratories, Hercules, CA). Equal amounts of protein samples (60 μg) were separated by 7-12% SDS-PAGE and the separated proteins were transferred onto polyvinylidene […] (PVDC) membrane overnight. The transferred protein membranes were blocked with 5% non-fat dried milk for 30 min, followed by incubation with specific primary antibodies overnight, and either horseradish peroxidase-conjugated goat anti-rabbit or anti-mouse antibodies for 2 h. The blots were detected using VL Chemi-Smart 3000 (Viogene Biotek, Sunnyvale, CA) with the enhanced chemiluminescence (ECL) western blotting reagent (Millipore, Billerica, MA).

Series [4] has as its system HO-1 and NQO-1 mRNA. Briefly: Q-PCR of anti-oxidant genes in HNDFs. In kind it is cell-based, human. Conditions: ANM 10 μM, 12 h. The protocol:
Total RNA was extracted from cultured HNDFs using Trizol Reagent (Thermo Fisher Scientific). Q-PCR analysis was performed using Applied Biosystems detection instruments and software. Forward and reverse primers (10 μM), and the working solution SYBR green, was used as a PCR master mix, under the following conditions: 96°C for 3 minutes followed by 40 cycles at 96°C for 1 minute, 50°C for 30 seconds and 72°C for 90 seconds. GAPDH was used as an internal standard to control for variability in amplification because of differences in starting mRNA concentrations. The copy number of each transcript was calculated as the relative copy number normalized by GAPDH copy number.

Series [5] deals with C. elegans wild type Bristol N2. Briefly: Stress-resistance assay (Juglone) in C. elegans. Particulars: pretreatment 10 μM for 3 days, then Juglone 250 μM for 2.5, 3.5 and 4.5 h. In kind it is in vivo, Caenorhabditis elegans. The protocol:
The wild type Bristol N2 strain was used in this study. C. elegans and Escherichia coli OP50 strain were obtained from the Caenorhabditis Genetic Center, University of Minnesota (Minneapolis-St. Paul, MN). Worms were maintained at 20°C on nematode growth medium (NGM). Hatched worms (L1-stage larvae) were transferred to fresh agar plates and cultured with E. coli OP50 as a food source until they reached the L4 larvae stage. Synchronization of worm cultures was achieved by hypochlorite treatment of gravid hermaphrodites.
Age synchronized L1 larvae were incubated with liquid S-basal medium containing E. coli OP50 at a density of 1 × 10^9 cells. Ml and 10 and 20 μM ANM or 0.01% DMSO (vehicle control) for 3 days. Subsequently, adult worms were subjected to oxidative stress assay. To induce oxidative stress, worms were incubated with Juglone (5-hydroxyl-1,4-naphthoquinone; Sigma), an ROS-generating agent. ANM treated and control worms were transferred to S-basal medium containing 250 μM Juglone, and incubated from 2.5, 3.5 and 4.5 h. After treatment, viable worms were scored. […] The test was performed triplicate.

Series [6] has the same test system. Briefly: Life span assay in C. elegans. In kind it is in vivo, Caenorhabditis elegans. The method, then:
The wild type Bristol N2 strain was used in this study. C. elegans and Escherichia coli OP50 strain were obtained from the Caenorhabditis Genetic Center, University of Minnesota (Minneapolis-St. Paul, MN). Worms were maintained at 20°C on nematode growth medium (NGM). Hatched worms (L1-stage larvae) were transferred to fresh agar plates and cultured with E. coli OP50 as a food source until they reached the L4 larvae stage. Synchronization of worm cultures was achieved by hypochlorite treatment of gravid hermaphrodites. […] Control worms were treated with 0.1% DMSO. All worms were kept 20°C to develop adulthood. Surviving and dead animals were counted daily (starting from the first day of adulthood) until all worms had died. […] Worms suffering from internal hatch (a defect in egg-laying) and those that crawled off the NGM plate were not included in the life-span assay. During the reproductive period, adult worms were transferred to fresh NGM plates every and then every other day thereafter. Life span assay result was obtained from three independent assays.

Series [7] has as its system HUVECs. Briefly: Cell viability of HUVECs (MTT assay). The series is classed as cell-based, human. Particulars: ANM 10 μM or RES 5 μM for 48 h. The protocol:
Human normal dermal fibroblasts ([…]) and human umbilical vein endothelial cells (HUVECs) were obtained from the Bioresource Collection and Research Center (BCRC), Hsinchu, Taiwan. […] Likewise, HUVECs were grown in M-199 medium supplemented with ECGS, heparin, 10% FBS and 100 U/mL penicillin and streptomycin at 37°C in a fully humidified atmosphere of 5% CO2. High-glucose treatment was performed by treating cells with 15 or 30 mM D-glucose (HG) for 24-72 h. […] Cell viability was assessed by MTT colorimetric assay. […] After treatment with HG (15 and 30 mM) in the presence or absence of samples for 24-72 h, culture media was withdrawn and incubated with MTT (1 mg/mL) in fresh medium for 2 h. The MTT formazan crystals were dissolved in 400 μL of DMSO and the samples were measured at 570 nm […] using an ELISA microplate reader (Bio-Tek Instruments, Winooski, VT). The percentage of cell viability (%) was calculated as (A570 of treated cells/A570 of untreated cells) × 100.
In general terms: Tetrazolium dyes change colour on reduction, which living cells bring about.

In the case of `C=C(CCC(C)C1CCC2C3=C(C(=O)C(O)C21C)C1(C)CCC(O)C(C)C1CC3)C(C)C(=O)O` (stereo not shown) [ANM, antcin M], the “HG-induced ROS generation” value in series [1] (ANM 10 μM or NAC 100 μM with HG (30 mM) for 24 h, HG alone 426.2%) is 200.8%. Besides, the “ROS generation, treatment alone” value in series [1] (ANM 10 μM or NAC 100 μM without HG, 24 h) was “did not significantly increase ROS generation”. For the same compound, the “free-radical scavenging in the cell-free system” value in series [2] is given as “failed to scavenge free radicals”. In addition, in series [3], the “HG-induced upregulation of p16INK4A and p21CIP1 proteins” value is “significantly downregulated”; the SMP30 protein expression entry was “rescued HG-induced SMP30 depletion”. In addition, the “mRNA levels of HO-1 and NQO-1” value in series [4] is “significantly increased”. In addition, in series [5], the “survival rate of worms exposed to oxidative stress” value was “significantly increased the survival rate”. For the same compound, in series [6] (ANM 10 μM or RES 438 μM alone, compared to the control), the “life span of C. elegans under normal condition” value was “significantly (P < 0.026) prolonged the life span”. The “life span of C. elegans under high glucose” value in series [6] (high glucose (50 mM) with ANM (100 μM as printed elsewhere in the source), vs high glucose alone) was “significant (P < 0.0001) increase of life span”. In addition, the “cell viability of HUVECs, treatment alone” value in series [7] is “did not affect cell viability”.

Values taken from publication PMC5325331, “A steroid like phytochemical Antcin M is an anti-aging reagent that eliminates hyperglycemia-accelerated premature senescence in dermal fibroblasts by direct activation of Nrf2 and SIRT-1” (Oncotarget, 2016).
